{
  "source": "paper PMC6934184",
  "about": "“Selective DNA-PKcs inhibition extends the therapeutic index of localized radiotherapy and chemotherapy” (The Journal of Clinical Investigation, 2019)",
  "biological_target": "T1, FES (FPS) (Homo sapiens, UniProt P07332)",
  "T1 construct": "purchased Thermo Fisher Scientific (Life Technologies) SelectScreen",
  "T1 sequence (P07332 whole entry)": "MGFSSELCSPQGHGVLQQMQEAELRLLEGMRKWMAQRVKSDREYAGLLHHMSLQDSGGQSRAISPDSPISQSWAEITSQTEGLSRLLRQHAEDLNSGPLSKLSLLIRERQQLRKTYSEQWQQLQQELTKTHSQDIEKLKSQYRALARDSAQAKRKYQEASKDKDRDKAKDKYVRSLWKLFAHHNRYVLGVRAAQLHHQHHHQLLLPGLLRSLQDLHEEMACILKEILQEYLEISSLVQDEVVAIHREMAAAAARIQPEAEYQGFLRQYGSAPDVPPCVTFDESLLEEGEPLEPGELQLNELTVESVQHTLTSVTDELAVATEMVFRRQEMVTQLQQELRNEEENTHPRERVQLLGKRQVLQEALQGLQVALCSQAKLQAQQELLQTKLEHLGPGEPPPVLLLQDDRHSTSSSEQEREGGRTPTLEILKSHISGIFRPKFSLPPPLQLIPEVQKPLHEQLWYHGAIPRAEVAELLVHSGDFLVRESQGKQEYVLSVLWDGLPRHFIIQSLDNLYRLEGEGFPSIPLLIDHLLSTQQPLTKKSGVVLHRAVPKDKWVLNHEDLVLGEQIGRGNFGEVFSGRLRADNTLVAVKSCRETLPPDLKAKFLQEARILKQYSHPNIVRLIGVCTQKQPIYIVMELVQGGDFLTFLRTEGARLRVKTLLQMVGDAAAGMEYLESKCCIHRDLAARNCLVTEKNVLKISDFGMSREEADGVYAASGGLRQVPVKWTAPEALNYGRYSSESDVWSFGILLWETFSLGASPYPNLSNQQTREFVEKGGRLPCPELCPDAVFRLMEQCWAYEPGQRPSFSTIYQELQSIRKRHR",
  "assay": "SelectScreen Z'LYTE",
  "type": "biochemical",
  "method_in_brief": "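Percent values come from Thermo SelectScreen profiling of NU5455, combining activity and binding assays. CSF1R was run in Z'LYTE format at Km app ATP, and CAMK1 in Adapta format with ATP listed at 10.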",
  "data": [
    {"smiles": "CN(C(=O)CN1CCOCC1)c1ccc2sc3c(-c4cccc5c(=O)cc(N6CC7CCC(C6)O7)oc45)cccc3c2c1", "note": "[NU5455]", "values": [
      {"measurement": "inhibition at 1 µM", "result": 10.4, "unit": "%"}
    ]}
  ]
}
